The numbers were not newly measured in US20240274231A1, “Method, System and Computer Program Product for Determining Peptide Immunogenicity” (MyNeo NV, priority 2020, published 2024), which cites them from elsewhere.

In the data set the test system is CD8+ T cell responses. The note with it: stimulated IFN gamma ELISpot, peptide specific CD8+ T-cell responses among eleven evaluable breast cancer patients, vaccine plus poly-ICLC.

Read-outs that look alike come from different tables or passages of the source.

Take “SLFRAVITK [MAGGE-A196-104, HLA-A3 MAGE-A196-104 vaccine peptide]”: the ELISpot is 1 borderline. Also, the ELISpot result (listed as MAGE-A196-104) was “borderline response”.
